What was measured:
Assay type in all cases: cell-based
[1] = test system: Malme-3M cell (human melanoma origin); assay: Comparison of melanogenic inhibitory activity, Malme-3M cell; conditions: Experiment 2, Malme-3M cell; intact melanogenic inhibitor at 1 or 3 units
Excerpt: (§1) According to the method for detecting melanogenic inhibitory activity in a prescribed pigment cell, specimens containing 1 or 3 units of an intact melanogenic inhibitor, obtained by the method in Experiment 1, were used to compare melanogenic inhibitory activity in established melanoma cell lines, i.e., B-16 cell (mouse melanoma origin), RPMI 1846 cell (hamster melanoma origin), and Malme-3M cell (human melanoma origin).
(§2) As control, either a system without melanogenic inhibitor or another system with melanogenic inhibitor which had been treated at […] for 2 hours was tested similarly as above.

[2] = test system: B-16 cell derived from mouse melanoma; assay: Melanogenic inhibitory activity in a prescribed pigment cell (B-16); conditions: Experiment 2, B-16 cell; intact melanogenic inhibitor at 1 or 3 units
Method: The melanogenic inhibitory activity in a prescribed pigment cell is detected by the method described in Cancer Research, Vol. 42, pp. 1994-2002 (1982).
B-16 cell derived from mouse melanoma is suspended in 10 ml Eagle's minimal essential medium (Grand Island Biological Co., Grand Island, N.Y.), supplemented with 10% fetal calf serum, to give 4×10^4 cells. The suspension is placed into a 25 cm^2 Roux's flask, and cultured at 37° C. with 5% CO2. The cultivation is continued for 5 days while replacing the culture medium with a fresh one supplemented with a melanogenic inhibitor specimen at the first- and third-days. After completion of the culture, the resultant cells are washed with a phosphate buffer (pH 7.2) containing 0.8 w/v % saline to detach them from the inside wall of the Roux's flask by the addition of a solution containing trypsin and EDTA (ethylenediaminetetraacetic acid), collected on a filter paper, and dried. The resultant cells are subjected to densitometry to measure the reflection light at a wave length of 500 nm, followed by determination of the reflection absorbance (degree of darkness).
One unit of melanogenic inhibitory activity is defined as the amount of the melanogenic inhibitor which halves the reflection absorbance of B-16 cells without treatment of melanogenic inhibitor.
as §1

[3] = test system: RPMI 1846 cell (hamster melanoma origin); assay: Comparison of melanogenic inhibitory activity, RPMI 1846 cell; conditions: Experiment 2, RPMI 1846 cell; intact melanogenic inhibitor at 1 or 3 units
Excerpt: as §1, §2

Measured: melanogenic inhibitory activity, comparison

N[C@@H](CS)C(=O)O [cysteine]
no melanogenic inhibition: [1] | [2] | [3]

N[C@@H](CCC(=O)N[C@@H](CS)C(=O)NCC(=O)O)C(=O)O [glutathione]
no melanogenic inhibition: [1] | [2] | [3]

O=C1O[C@H]([C@@H](O)CO)C(O)=C1O [vitamin C]
no melanogenic inhibition: [1] | [2] | [3]

Source: patent publication US5077059A, “Process for preparing melanogenic inhibitor, and pigmentation-lightening agent containing the same” (Yuaka; Mishimazo, priority 1987, dated 1991)
